# Source: patent US20110034469A1, “Heterocyclic Compound” (TAKEDA PHARMACEUTICAL COMPANY LIMITED, priority 2009, published 2011)
# Where a name gives a salt, the structure may show the parent alone.
# Test system: human breast cancer cell MDA-MB-231-Luc
# Assay: In vivo breast cancer cell tumor regression activity
# Conditions: orally 100 mg/kg, twice per day for 14 days; subcutaneous MDA-MB-231-Luc tumor in female nude mouse
# Experimental: MDA-MB-231 cells (American Tissue Culture Collection) were suspended in DMEM medium (Invitrogen) containing 10% fetal bovine serum (Cell Culture Bioscience), plated in a 12-well plate at 1×10^5 cells/mL, each well 1 mL, and the cells were cultured. After 24 hr of culture, the medium was removed, 100 μL of OMEM (Invitrogen) containing […] of pGL4 CMV-luc/Neo plasmid and Lipofectamin LTX (Invitrogen) was added to each well for transfection according to the attached instruction manual. After the plasmid DNA introduction is operation for 25 min., the medium was exchanged with DMEM medium, and the cells were further cultured for 72 hr. The introduced cells were suspended in a medium containing […] G418 (Sigma Ltd.) by a trypsin (Invitrogen) treatment, and plated again in a 6-well plate. […] Finally, MDA-MB-231 cells capable of growing in a medium containing […] G418 were treated by a limit dilution method to give a single colony. Luciferin (Promega) was added to MDA-MB-231 cells in each clone, and the chemical luminescence level was measured using ARVO (PerkinElmer) to give MDA-MB-231-Luc.
# The human breast cancer cell MDA-MB-231-Luc ([…]) obtained in Experimental Example 5 were suspended in Matrigel solution (BD Bioscience) and transplanted into 6-week-old BALE/c female nude mouse (CLEA Japan, Inc.) by subcutaneous injection. Mice with a tumor engrafted at a size in tumor volume of about 200 mm^3 on day 12-15 post-transplantation were selected and 5 per group were used for the experiment. A 0.5% methylcellulose (Wako Pure Chemical Industries, Ltd.) suspension or 0.1 M PBS solution (NaH2PO4/Na2HPO4, pH 5.8) of the compound was orally administered at a dose of 100 mg/kg, twice per day for 14 days. The tumor diameter was measured on the day of start of the administration and the day of completion of the administration, and the tumor volume was obtained from formula 1.
# tumor volume=long diameter×short diameter×short diameter×(½) formula 1
# The ratio of the value obtained by subtracting tumor volume on the day of completion of the administration from that on the day of start of the administration to the tumor volume on the day of start of the administration was obtained as a tumor regression rate from the formula 2.
# tumor regression rate (%)=(tumor volume on the day of start of administration−tumor volume on the day of completion of administration)/tumor volume on the day of start of administration×100 formula 2
row,SMILES,tumor regression rate (%)
1,"CCO[C@@H]1C[C@@H]2CN(C(=O)[C@@H](NC(=O)[C@H](C)NC)C3CCCCC3)[C@H](C(=O)N[C@@H]3CCOc4ccccc43)CN2C1 [Example 18, (3S,7R,8aR)-2-{(2S)-2-cyclohexyl-2-[(N-methyl-L-alanyl)amino]acetyl}-N-[(4R)-3,4-dihydro-2H-chromen-4-yl]-7-ethoxyoctahydropyrrolo[1,2-a]pyrazine-3-carboxamide]",78%
2,"CN[C@@H](C)C(=O)N[C@H](C(=O)N1C[C@H]2CCCN2C[C@H]1C(=O)N[C@@H]1CCOc2ccccc21)c1ccccc1.Cl.Cl [Example 19, (3S,8aR)—N-[(4R)-3,4-dihydro-2H-chromen-4-yl]-2-{(2S)-2-[(N-methyl-L-alanyl)amino]-2-phenylacetyl}octahydropyrrolo[1,2-a]pyrazine-3-carboxamide dihydrochloride]",64%
3,"CCO[C@@H]1C[C@@H]2CN(C(=O)[C@@H](NC(=O)[C@H](C)NC)C3CCC(F)(F)CC3)[C@H](C(=O)N[C@@H]3CCOc4ccccc43)CN2C1 [Example 23, (3S,7R,8aR)-2-{(2S)-2-(4,4-difluorocyclohexyl)-2-[(N-methyl-L-alanyl)amino]acetyl}-N-[(4R)-3,4-dihydro-2H-chromen-4-yl]-7-ethoxyoctahydropyrrolo[1,2-a]pyrazine-3-carboxamide]",74%
4,"CN[C@@H](C)C(=O)N[C@H](C(=O)N1C[C@H]2CCCN2C[C@H]1C(=O)N[C@@H]1CCOc2cc(F)cc(F)c21)C1CCCCC1 [Example 24, (3S,8aR)-2-{(2S)-2-cyclohexyl-2-[(N-methyl-L-alanyl)amino]acetyl}-N-[(4R)-5,7-difluoro-3,4-dihydro-2H-chromen-4-yl]octahydropyrrolo[1,2-a]pyrazine-3-carboxamide dihydrochloride]",55%
5,"CN[C@@H](C)C(=O)N[C@H](C(=O)N1C[C@H]2CCCN2C[C@H]1C(=O)N[C@H]1c2ccccc2C[C@@H]1O)C1CCCCC1.Cl.Cl [Example 26, (3S,8aR)-2-{(2S)-2-cyclohexyl-2-[(N-methyl-L-alanyl)amino]acetyl}-N-[(1S,2S)-2-hydroxy-2,3-dihydro-1H-inden-1-yl]octahydropyrrolo[1,2-a]pyrazine-3-carboxamide dihydrochloride]",41%
6,"CN[C@@H](C)C(=O)N[C@H](C(=O)N1C[C@H]2CCCN2C[C@H]1C(=O)N[C@@H]1CCOc2ccccc21)C1CCC(F)(F)CC1.Cl.Cl [Example 32, (3S,8aR)-2-{(2S)-2-(4,4-difluorocyclohexyl)-2-[(N-methyl-L-alanyl)amino]acetyl}-N-[(4R)-3,4-dihydro-2H-chromen-4-yl]octahydropyrrolo[1,2-a]pyrazine-3-carboxamide dihydrochloride]",61%

# Target: human XIAP_BIR3 domain purified protein (Homo sapiens, UniProt P98170)
# Sequence (P98170 252-356 limits assumed): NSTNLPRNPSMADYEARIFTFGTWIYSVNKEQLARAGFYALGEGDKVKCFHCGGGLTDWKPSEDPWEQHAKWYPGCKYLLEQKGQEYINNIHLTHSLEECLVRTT
# Assay: Human XIAP binding inhibitory activity (HTRF, b-Smac ligand)
# Conditions: read-out: XIAP binding inhibitory rate (%) at 3 μM of the test compound
row,inhibition at 3 µM,SMILES
1,99.2%,"CN[C@@H](C)C(=O)N[C@@H](CCCNC(=O)OCc1ccccc1)C(=O)N1C[C@H]2CCCN2C[C@H]1C(=O)N[C@@H]1CCCc2ccccc21 [Example 5, benzyl{(4S)-4-[(N-methyl-L-alanyl)amino]-5-oxo-5-[(3S,8aR)-3-((1R)-1,2,3,4-tetrahydronaphthalen-1-ylcarbamoyl)hexahydropyrrolo[1,2-a]pyrazin-2(1H)-yl]pentyl}carbamate dihydrochloride]"
2,98.8%,"CN[C@@H](C)C(=O)N[C@@H](CCCCNC(=O)OCc1ccccc1)C(=O)N1C[C@H]2CCCN2C[C@H]1C(=O)N[C@@H]1CCCc2ccccc21 [Example 6, benzyl{(5S)-5-[(N-methyl-L-alanyl)amino]-6-oxo-6-[(3S,8aR)-3-[(1R)-1,2,3,4-tetrahydronaphthalen-1-ylcarbamoyl]hexahydropyrrolo[1,2-a]pyrazin-2(1H)-yl]hexyl}carbamate dihydrochloride]"
3,99.6%,"CCO[C@@H]1C[C@@H]2CN(C(=O)[C@@H](NC(=O)[C@H](C)NC)C3CCCCC3)[C@H](C(=O)N[C@@H]3CCOc4ccccc43)CN2C1 [Example 18, (3S,7R,8aR)-2-{(2S)-2-cyclohexyl-2-[(N-methyl-L-alanyl)amino]acetyl}-N-[(4R)-3,4-dihydro-2H-chromen-4-yl]-7-ethoxyoctahydropyrrolo[1,2-a]pyrazine-3-carboxamide]"
4,97.3%,"CN[C@@H](C)C(=O)N[C@H](C(=O)N1C[C@H]2CCCN2C[C@H]1C(=O)N[C@@H]1CCOc2cc(F)cc(F)c21)C1CCCCC1 [Example 24, (3S,8aR)-2-{(2S)-2-cyclohexyl-2-[(N-methyl-L-alanyl)amino]acetyl}-N-[(4R)-5,7-difluoro-3,4-dihydro-2H-chromen-4-yl]octahydropyrrolo[1,2-a]pyrazine-3-carboxamide dihydrochloride]"
5,97.2%,"CN[C@@H](C)C(=O)N[C@H](C(=O)N1C[C@H]2CCCN2C[C@H]1C(=O)N[C@H]1c2ccccc2C[C@H]1O)C1CCCCC1 [Example 27, (3S,8aR)-2-{(2S)-2-cyclohexyl-2-[(N-methyl-L-alanyl)amino]acetyl}-N-[(1S,2R)-2-hydroxy-2,3-dihydro-1H-inden-1-yl]octahydropyrrolo[1,2-a]pyrazine-3-carboxamide dihydrochloride]"
6,93.5%,"CN[C@@H](C)C(=O)N[C@H](C(=O)N1C[C@H]2C[C@@](C)(O)CN2C[C@H]1C(=O)N[C@@H]1CCOc2ccccc21)C1CCCCC1 [Example 41, (3S,7R,8aR)-2-{(2S)-2-cyclohexyl-2-[(N-methyl-L-alanyl)amino]acetyl}-N-[(4R)-3,4-dihydro-2H-chromen-4-yl]-7-hydroxy-7-methyloctahydropyrrolo[1,2-a]pyrazine-3-carboxamide dihydrochloride]"
7,97.1%,"CN[C@@H](C)C(=O)N[C@H](C(=O)N1C[C@H]2CC(F)(F)CN2C[C@H]1C(=O)N[C@@H]1CCOc2ccccc21)C1CCCCC1 [Example 50, (3S,8aR)-2-{(2S)-2-cyclohexyl-2-[(N-methyl-L-alanyl)amino]acetyl}-N-[(4R)-3,4-dihydro-2H-chromen-4-yl]-7,7-difluorooctahydropyrrolo[1,2-a]pyrazine-3-carboxamide dihydrochloride]"
8,96.6%,"CN[C@@H](C)C(=O)N[C@H](C(=O)N1C[C@H]2C[C@@H](OCC3CC3)CN2C[C@H]1C(=O)N[C@@H]1CCOc2ccccc21)C1CCCCC1 [Example 82, (3S,7R,8aR)-2-{(2S)-2-cyclohexyl-2-[(N-methyl-L-alanyl)amino]acetyl}-7-(cyclopropylmethoxy)-N-[(4R)-3,4-dihydro-2H-chromen-4-yl]octahydropyrrolo[1,2-a]pyrazine-3-carboxamide]"
9,95.5%,"CCO[C@@H]1C[C@@H]2CN(C(=O)[C@@H](NC(=O)[C@H](CC)NC)C3CCCCC3)[C@H](C(=O)N[C@@H]3CCOc4ccccc43)CN2C1 [Example 91, (3S,7R,8aR)-2-[(2S)-2-cyclohexyl-2-{[(2S)-2-(methylamino)butanoyl]amino}acetyl]-N-[(4R)-3,4-dihydro-2H-chromen-4-yl]-7-ethoxyoctahydropyrrolo[1,2-a]pyrazine-3-carboxamide]"
10,98.9%,"CN[C@@H](C)C(=O)N[C@@H](CCCCNC(=O)c1ccc(C(=O)NCCCC[C@H](NC(=O)[C@H](C)NC)C(=O)N2C[C@H]3CCCN3C[C@H]2C(=O)N[C@@H]2CCCc3ccccc32)cc1)C(=O)N1C[C@H]2CCCN2C[C@H]1C(=O)N[C@@H]1CCCc2ccccc21 [Example 125, N,N′-bis{(5S)-5-[(N-methyl-L-alanyl)amino]-6-oxo-6-[(3S,8aR)-3-[(1R)-1,2,3,4-tetrahydronaphthalen-1-ylcarbamoyl]hexahydropyrrolo[1,2-a]pyrazin-2(1H)-yl]hexyl}benzene-1,4-dicarboxamide]"
11,99%,"CN[C@@H](C)C(=O)N[C@@H](CCCCNC(=O)CCCCCCCCC(=O)NCCCC[C@H](NC(=O)[C@H](C)NC)C(=O)N1C[C@H]2CCCN2C[C@H]1C(=O)N[C@@H]1CCCc2ccccc21)C(=O)N1C[C@H]2CCCN2C[C@H]1C(=O)N[C@@H]1CCCc2ccccc21 [Example 126, N,N′-bis{(5S)-5-[(N-methyl-L-alanyl)amino]-6-oxo-6-[(3S,8aR)-3-[(1R)-1,2,3,4-tetrahydronaphthalen-1-ylcarbamoyl]hexahydropyrrolo[1,2-a]pyrazin-2(1H)-yl]hexyl}decanediamide]"
12,98%,"CCO[C@@H]1C[C@@H]2CN(C(=O)[C@@H](NC(=O)[C@H](CC)NC)C3CCC(F)(F)CC3)[C@H](C(=O)N[C@@H]3CCOc4ccccc43)CN2C1 [Example 127, (3S,7R,8aR)-2-[(2S)-2-(4,4-difluorocyclohexyl)-2-{[(2S)-2-(methylamino)butanoyl]amino}acetyl]-N-[(4R)-3,4-dihydro-2H-chromen-4-yl]-7-ethoxyoctahydropyrrolo[1,2-a]pyrazine-3-carboxamide]"
